Assay: Roundtable assessment of astringency
Format: in vivo
Conditions: RebM 700 ppm, modifier between 0 ppm and about 500 ppm
Description: For other sweetness attributes, the solutions were tested by a panel of at least four individuals that are highly-trained in tasting steviol glycoside solutions. The highly-trained panelists used a roundtable methodology to assess each sweetness attribute. To test each solution, the highly-trained panelists dispensed approximately 2 mL of each solution into their own mouths by transfer pipet, dispersed the solution by moving their tongues, and recorded a value for the particular sweetness attribute being tested. Between tasting solutions, the panelists were able to cleanse their palates with water. For each sweetness attribute, the panelist agreed on a descriptive scale with relative intensities assigned for each sweetness attribute and then recorded the values for each sweetness attribute against this. For example, this roundtable assessment of sweetness linger assigned a scale of 0 to 6 with a score of 0 indicating no sweetness linger and a score of 6 indicating extreme sweetness linger. Roundtable assessment of sweetness linger assigned a scale of 0 to 6 with a score of 0 indicating no sweetness linger and a score of 6 indicating extreme sweetness linger (0=none, 1=trace, 2=slight, 3=moderate, 4=definite, 5=strong, 6=extreme). Roundtable assessment of rounded assigned a scale of 0 to 3 with a score of 0 indicating spikey and a score of 3 indicating desirable rounded (0=none, 1=mostly spikey, some rounded, 2=mostly rounded, some spikey, 3=rounded). Roundtable assessment of mouthfeel assigned a scale of 0 to 2 with a score of 0 indicating water and a score of 2 indicating syrupy (0=water, 1=sucrosey, 2=syrupy). Roundtable assessment of bitterness assigned a scale of 0 to 6 with a score of 0 indicating no bitterness and a score of 6 indicating extreme sweetness linger (0=none, 1=trace, 2=slight, 3=moderate, 4=definite, 5=strong, 6=extreme). Roundtable assessment of off tastes assigned a scale of 0 to 6 with a score of 0 indicating no bitterness and a score of 6 indicating extreme off tastes (0=none, 1=trace, 2=slight, 3=moderate, 4=definite, 5=strong, 6=extreme).
Roundtable assessment of botanical notes assigned a scale of 0 to 5 with a score of 0 indicating no botanical notes and a score of 5 indicating strong (0=none, 1=trace, 2=slight, 3=moderate, 4=definite, 5=strong).
Solutions of steviol glycosides and sensory modifier compound were prepared at increasing ratios of sensory modifier to steviol glycoside by weight. […] The concentration of steviol glycosides was 700 ppm in each solution. The solutions were tested for astringency.

**Q.** For `O=C(/C=C/c1ccc(O)c(O)c1)O[C@@H](C(=O)O)[C@@H](OC(=O)/C=C/c1ccc(O)c(O)c1)C(=O)O` [tartaric backbone (cichoric acid), cichoric acid], which Astringency is on record?
**A.** imperceptible

Source: patent US20190223483A1, “SENSORY MODIFIER COMPOUNDS” (CARGILL, INCORPORATED, priority 2017, published 2019)
